Values after ≈ are worked out from the molar mass of the structure shown.
What was measured:
Type in all cases: functional
KM12 = test: Anticancer activity against Homo sapiens (human) KM12 cells after 48 hr by SRB assay; details: KM12, 48 h
HL-60(TB) [1] = test: Growth inhibition of Homo sapiens (human) HL-60(TB) cells at 10 uM after 48 hr by SRB assay; details: HL-60, 48 h, read-out: GI
A498 [2] = test: Growth inhibition of Homo sapiens (human) A498 cells at 10 uM after 48 hr by SRB assay; details: A498, 48 h, read-out: GI
MCF7 [3] = test: Anticancer activity against Homo sapiens (human) MCF7 cells after 48 hr by SRB assay; details: MCF7, 48 h
HL-60(TB) [4] = test: Anticancer activity against Homo sapiens (human) HL-60(TB) cells after 48 hr by SRB assay; details: HL-60, 48 h
Pseudomonas aeruginosa = test: Antimicrobial activity against Pseudomonas aeruginosa ATCC9027 assessed as diameter of growth inhibition zone at 1 mg/ml after 24 hr by agar cup diffusion method; details: ATCC9027, 24 h, read-out: IZ
UACC-62 = test: Anticancer activity against Homo sapiens (human) UACC62 cells after 48 hr by SRB assay; details: UACC-62, 48 h
SF-268 = test: Anticancer activity against Homo sapiens (human) SF268 cells after 48 hr by SRB assay; details: SF-268, 48 h
U-251 [5] = test: Growth inhibition of Homo sapiens (human) U251 cells at 10 uM after 48 hr by SRB assay; details: U-251, 48 h, read-out: GI
SF-539 = test: Growth inhibition of Homo sapiens (human) SF539 cells at 10 uM after 48 hr by SRB assay; details: SF-539, 48 h, read-out: GI
SK-MEL-2 = test: Growth inhibition of Homo sapiens (human) SK-MEL-2 cells at 10 uM after 48 hr by SRB assay; details: SK-MEL-2, 48 h, read-out: GI
T47D = test: Anticancer activity against Homo sapiens (human) T47D cells after 48 hr by SRB assay
NCI-H322M = test: Anticancer activity against Homo sapiens (human) NCI-H322M cells after 48 hr by SRB assay
OVCAR-8 = test: Anticancer activity against Homo sapiens (human) OVCAR8 cells after 48 hr by SRB assay; details: OVCAR-8, 48 h
MOLT-4 = test: Anticancer activity against Homo sapiens (human) MOLT4 cells after 48 hr by SRB assay; details: MOLT-4, 48 h
SK-OV-3 = test: Anticancer activity against Homo sapiens (human) SKOV3 cells after 48 hr by SRB assay; details: SK-OV-3, 48 h
RXF 393 = test: Growth inhibition of Homo sapiens (human) RXF393 cells at 10 uM after 48 hr by SRB assay; details: RXF 393, 48 h, read-out: GI
Escherichia coli = test: Antimicrobial activity against Escherichia coli ATCC8739 assessed as diameter of growth inhibition zone at 1 mg/ml after 24 hr by agar cup diffusion method; details: ATCC8739, 24 h, read-out: IZ
UACC-257 = test: Anticancer activity against Homo sapiens (human) UACC257 cells after 48 hr by SRB assay; details: UACC-257, 48 h
Candida albicans = test: Antimicrobial activity against Candida albicans ATCC2091 assessed as growth inhibition after 48 hr by two-fold serial dilution method; details: ATCC2091, 48 h
786-0 = test: Anticancer activity against Homo sapiens (human) 786-0 cells after 48 hr by SRB assay; details: 786-0, 48 h
HCC 2998 = test: Growth inhibition of Homo sapiens (human) HCC2998 cells at 10 uM after 48 hr by SRB assay; details: HCC 2998, 48 h, read-out: GI
MCF7 [6] = test: Growth inhibition of Homo sapiens (human) MCF7 cells at 10 uM after 48 hr by SRB assay; details: MCF7, 48 h, read-out: GI
HCT-116 = test: Growth inhibition of Homo sapiens (human) HCT116 cells at 10 uM after 48 hr by SRB assay; details: HCT-116, 48 h, read-out: GI
SNB-19 = test: Anticancer activity against Homo sapiens (human) SNB19 cells after 48 hr by SRB assay; details: SNB-19, 48 h
U-251 [7] = test: Anticancer activity against Homo sapiens (human) U251 cells after 48 hr by SRB assay; details: U-251, 48 h
SW-620 = test: Anticancer activity against Homo sapiens (human) SW620 cells after 48 hr by SRB assay; details: SW-620, 48 h
A498 [8] = test: Anticancer activity against Homo sapiens (human) A498 cells after 48 hr by SRB assay; details: A498, 48 h
SR = test: Anticancer activity against Homo sapiens (human) SR cells after 48 hr by SRB assay
NCI-H522 = test: Growth inhibition of Homo sapiens (human) NCI-H522 cells at 10 uM after 48 hr by SRB assay; details: NCI-H522, 48 h, read-out: GI
OVCAR-3 = test: Growth inhibition of Homo sapiens (human) OVCAR3 cells at 10 uM after 48 hr by SRB assay; details: OVCAR-3, 48 h, read-out: GI
NCI-H226 = test: Anticancer activity against Homo sapiens (human) NCI-H226 cells after 48 hr by SRB assay; details: NCI-H226, 48 h
Staphylococcus aureus = test: Antimicrobial activity against Staphylococcus aureus ATCC6538P assessed as diameter of growth inhibition zone at 1 mg/ml after 24 hr by agar cup diffusion method; details: read-out: IZ
[9] = read-out: LC50 (the source's name)

With `Cc1c(C(N)=O)sc2nc(C)n(/N=c3\scc(-c4ccccc4)n3Cc3ccccc3)c(=O)c12` the GI50 (KM12) was 3.37 µM, the TGI (KM12) was > 100 µM and the CC50 (KM12; [9]) was > 100 µM. The inhibition of growth at 10 µM (HL-60(TB) [1]) was 136%, the inhibition of growth at 10 µM (A498 [2]) was 99.3% and the GI50 (MCF7 [3]) was 2.92 µM. The TGI (MCF7 [3]) was > 100 µM, the CC50 (MCF7 [3]; [9]) was > 100 µM and the GI50 (HL-60(TB) [4]) was 6.68 µM. The TGI (HL-60(TB) [4]) was > 100 µM, the CC50 (HL-60(TB) [4]; [9]) was > 100 µM and the zone of inhibition at 1000 µg/mL (Pseudomonas aeruginosa) was 17 mm. The GI50 (UACC-62) was 4.26 µM, the TGI (UACC-62) was 83.2 µM and the CC50 (UACC-62; [9]) was > 100 µM. For the same compound, the GI50 (SF-268) was 4 µM, the TGI (SF-268) was > 100 µM and the CC50 (SF-268; [9]) was > 100 µM. It also gave an inhibition of growth at 10 µM (U-251 [5]) of 92.2%, an inhibition of growth at 10 µM (SF-539) of 77.8% and an inhibition of growth at 10 µM (SK-MEL-2) of 90%. For the same compound, the GI50 (T47D) was 3.25 µM, the TGI (T47D) was > 100 µM and the CC50 (T47D; [9]) was > 100 µM. For the same compound, the GI50 (NCI-H322M) was 3.71 µM, the TGI (NCI-H322M) was > 100 µM and the CC50 (NCI-H322M; [9]) was > 100 µM. For the same compound, the GI50 (OVCAR-8) was 3.49 µM, the TGI (OVCAR-8) was > 100 µM and the CC50 (OVCAR-8; [9]) was > 100 µM. For the same compound, the GI50 (MOLT-4) was 24.6 µM, the TGI (MOLT-4) was > 100 µM and the CC50 (MOLT-4; [9]) was > 100 µM. The GI50 (SK-OV-3) was 4.5 µM, the TGI (SK-OV-3) was > 100 µM and the CC50 (SK-OV-3; [9]) was > 100 µM. The inhibition of growth at 10 µM (RXF 393) was 105%, the zone of inhibition at 1000 µg/mL (Escherichia coli) was 15 mm and the GI50 (UACC-257) was 3.56 µM. The TGI (UACC-257) was 24.3 µM, the CC50 (UACC-257; [9]) was > 100 µM and the MIC (Candida albicans) was 125 µg/mL (≈ 256 µM). The GI50 (786-0) was 3.82 µM, the TGI (786-0) was > 100 µM and the CC50 (786-0; [9]) was > 100 µM. For the same compound, the inhibition of growth at 10 µM (HCC 2998) was 42.9%, the inhibition of growth at 10 µM (MCF7 [6]) was 82.7% and the inhibition of growth at 10 µM (HCT-116) was 70.9%. The GI50 (SNB-19) was 4.8 µM, the TGI (SNB-19) was > 100 µM and the CC50 (SNB-19; [9]) was > 100 µM. For the same compound, the GI50 (U-251 [7]) was 3.31 µM, the TGI (U-251 [7]) was > 100 µM and the CC50 (U-251 [7]; [9]) was > 100 µM. The GI50 (SW-620) was 3.16 µM, the TGI (SW-620) was > 100 µM and the CC50 (SW-620; [9]) was > 100 µM. For the same compound, the GI50 (A498 [8]) was 2.53 µM, the TGI (A498 [8]) was 8.97 µM and the CC50 (A498 [8]; [9]) was > 100 µM. The GI50 (SR) was 5.74 µM, the TGI (SR) was > 100 µM and the CC50 (SR; [9]) was > 100 µM. The inhibition of growth at 10 µM (NCI-H522) was 75.1%, the inhibition of growth at 10 µM (OVCAR-3) was 95.7% and the GI50 (NCI-H226) was 3.72 µM. For the same compound, the TGI (NCI-H226) was 67.9 µM, the CC50 (NCI-H226; [9]) was > 100 µM and the zone of inhibition at 1000 µg/mL (Staphylococcus aureus) was 10 mm.

Reference: ChEMBL document CHEMBL3046848, “Synthesis and biological evaluation of novel series of thieno[2,3-d]pyrimidine derivatives as anticancer and antimicrobial agents” (2013)
